Read-outs that look alike come from different tables or passages of the source.
Key:
[1] = molecular target: T1, RARα (Homo sapiens, UniProt P10276); assay: Competition binding assay using Yttrium SPA beads, RARα
T1 construct: made in house; host or cells: E. coli BL21 (DE3)
T1 sequence (P10276 183-417 limits assumed): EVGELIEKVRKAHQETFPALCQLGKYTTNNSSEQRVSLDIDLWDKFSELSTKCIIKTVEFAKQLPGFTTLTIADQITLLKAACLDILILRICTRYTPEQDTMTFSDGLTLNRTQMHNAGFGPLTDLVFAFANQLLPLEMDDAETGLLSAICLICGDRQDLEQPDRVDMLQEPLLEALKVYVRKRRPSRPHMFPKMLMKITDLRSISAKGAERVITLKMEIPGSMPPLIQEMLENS

[2] = molecular target: T2, RARβ (Homo sapiens, UniProt P10826); assay: Competition binding assay using Yttrium SPA beads, RARβ
T2 construct: made in house; host or cells: E. coli BL21 (DE3)
T2 sequence (P10826 183-417 limits assumed): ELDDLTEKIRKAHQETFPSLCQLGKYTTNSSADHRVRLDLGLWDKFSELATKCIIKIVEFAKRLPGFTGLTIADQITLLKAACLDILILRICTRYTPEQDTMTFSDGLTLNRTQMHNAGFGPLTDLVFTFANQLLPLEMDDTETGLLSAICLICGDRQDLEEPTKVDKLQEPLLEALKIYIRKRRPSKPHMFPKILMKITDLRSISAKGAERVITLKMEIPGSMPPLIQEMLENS

[3] = molecular target: T3, RARγ (Homo sapiens, UniProt P13631); assay: Competition binding assay using Yttrium SPA beads, RARγ
T3 construct: made in house; host or cells: E. coli BL21 (DE3)
T3 sequence (P13631 185-419 limits assumed): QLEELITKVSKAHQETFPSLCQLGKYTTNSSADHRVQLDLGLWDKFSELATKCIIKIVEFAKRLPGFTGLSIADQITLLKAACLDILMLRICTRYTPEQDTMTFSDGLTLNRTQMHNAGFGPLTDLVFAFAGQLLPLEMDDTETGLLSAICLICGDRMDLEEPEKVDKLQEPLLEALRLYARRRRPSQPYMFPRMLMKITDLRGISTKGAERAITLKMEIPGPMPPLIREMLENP

[4] = molecular target: T4, GAL-RARα (Homo sapiens, UniProt P10276); assay: Transactivation assay, HeLa cells with GAL-RARα and (17 mer)x5-Glob-Luc reporter; type: cell-based; details: stable HeLa cell line, luciferase reporter, 24 hours
T4 construct: expressed in transfected cells
T4 sequence (P10276 183-417 limits assumed): T1 sequence (P10276 183-417 limits assumed)

[5] = molecular target: T5, GAL-RARβ (Homo sapiens, UniProt P10826); assay: Transactivation assay, HeLa cells with GAL-RARβ and (17 mer)x5-Glob-Luc reporter; type: cell-based; details: stable HeLa cell line, luciferase reporter, 24 hours
T5 construct: expressed in transfected cells
T5 sequence (P10826 183-417 limits assumed): T2 sequence (P10826 183-417 limits assumed)

[6] = molecular target: T6, GAL-RARγ (Homo sapiens, UniProt P13631); assay: Transactivation assay, HeLa cells with GAL-RARγ and (17 mer)x5-Glob-Luc reporter; type: cell-based; details: stable HeLa cell line, luciferase reporter, 24 hours
T6 construct: expressed in transfected cells
T6 sequence (P13631 185-419 limits assumed): T3 sequence (P13631 185-419 limits assumed)

[7] = system: T47D; assay: Growth assay, [3H]-thymidine incorporation, T47D; type: cell-based; details: Homo sapiens, T47D cells, 3 or 6 days incubation, read-out: Cell Growth Inhibition (IC50, nM) T47D
Experimental: (§1) Principle of the assay: The proliferation of the cells was measured by the incorporation of [^3H]-Thymidine in the DNA of dividing cells.
(§2) Protocol: The number of cells which was plated has been primarily defined to avoid the cells reaching confluence before the end of the experiment duration (T47D & HT3, 750 cells/well; H3396, 200 cells/well of 96 well plates). The first day, the cells were plated in 96 well plates and incubated overnight at 37° C. (in […]; CO2, 5%), allowing the cells adhering to the support. The next day, the compounds were added to the cells and incubated for 3 or 6 days (note: for the 6-day incubation, the medium was replaced at Day3). At the end of the treatment, 10 μl of [^3H]-thymidine (final concentration of 0.4 μCi/well) were added for 4 hours at 37° C., the medium was finally removed, the cells trypsinized and harvested under vacuum on GF/B glass fiber filters. After 3 washes with distilled water, the filter were dried and counted in a scintillation counter after adding 50 μl of Microscint (Packard) to each filter. The percentage of growth inhibition was calculated by using DMSO as reference, which is the vehicle of the compounds. Growth inhibition is reported as IC50's in nM

[8] = system: HT3; assay: Growth assay, [3H]-thymidine incorporation, HT3; type: cell-based; details: Homo sapiens
Experimental: as §1, §2

[9] = HT-3, HT3 cells, [3H]-thymidine incorporation, 3 or 6 days incubation, read-out: Cell Growth Inhibition (IC50, nM) HT3

Kd [1] [nM]	Kd [2] [nM]	Kd [3] [nM]	EC50 [4] [nM]	EC50 [5] [nM]	EC50 [6] [nM]	IC50 [7] [nM]	Compound	IC50 [8, 9] [nM]	IC50 ([8]; HT-3, read-out: Cell Growth Inhibition (IC50, nM) HT3) [nM]
8.3	18.6	52.8	13.5	1.76	47	4.8	CC1(C)Cc2ccc(O)cc2-c2cc(/C=C/c3ccc(C(=O)O)cc3)ccc21 [Compound 8]	1160	–
1.1	1.6	10.6	0.02	0.005	1.9	< 0.01	COc1ccc2c(c1)-c1cc(/C=C/c3ccc(C(=O)O)cc3)ccc1C(C)(C)C2 [Compound 10]	< 0.01	–

Compound	Kd [1] [nM]	Kd [2] [nM]	Kd [3] [nM]	EC50 [4] [nM]	EC50 [5] [nM]	EC50 [6] [nM]	IC50 [7] [nM]	IC50 [8, 9] [nM]	IC50 ([8]; HT-3, read-out: Cell Growth Inhibition (IC50, nM) HT3) [nM]
CC1=C(/C=C/C(C)=C/C=C/C(C)=C/C(=O)O)C(C)(C)CCC1 [Retinoic acid, reference compound]	–	–	–	–	–	–	6.5	–	1

From patent US6825233B2, “Compounds having retinoid-like activity” (Bristol-Myers Squibb Company, priority 2001, dated 2004)
